Experimental data: patent publication US20070066682A1, “Arylalkylamine vanadium (V) salts for the treatment and/or prevention of Diabetes mellitus” (priority 2005, published 2007)

Tests used:
[1] = target: T1, mouse SSAO (Mus musculus, UniProt O70423); assay: SSAO activity, hydrogen peroxide production relative to benzylamine (mouse); assay type: biochemical; conditions: compound at 100 μM
T1 sequence (O70423 1-765): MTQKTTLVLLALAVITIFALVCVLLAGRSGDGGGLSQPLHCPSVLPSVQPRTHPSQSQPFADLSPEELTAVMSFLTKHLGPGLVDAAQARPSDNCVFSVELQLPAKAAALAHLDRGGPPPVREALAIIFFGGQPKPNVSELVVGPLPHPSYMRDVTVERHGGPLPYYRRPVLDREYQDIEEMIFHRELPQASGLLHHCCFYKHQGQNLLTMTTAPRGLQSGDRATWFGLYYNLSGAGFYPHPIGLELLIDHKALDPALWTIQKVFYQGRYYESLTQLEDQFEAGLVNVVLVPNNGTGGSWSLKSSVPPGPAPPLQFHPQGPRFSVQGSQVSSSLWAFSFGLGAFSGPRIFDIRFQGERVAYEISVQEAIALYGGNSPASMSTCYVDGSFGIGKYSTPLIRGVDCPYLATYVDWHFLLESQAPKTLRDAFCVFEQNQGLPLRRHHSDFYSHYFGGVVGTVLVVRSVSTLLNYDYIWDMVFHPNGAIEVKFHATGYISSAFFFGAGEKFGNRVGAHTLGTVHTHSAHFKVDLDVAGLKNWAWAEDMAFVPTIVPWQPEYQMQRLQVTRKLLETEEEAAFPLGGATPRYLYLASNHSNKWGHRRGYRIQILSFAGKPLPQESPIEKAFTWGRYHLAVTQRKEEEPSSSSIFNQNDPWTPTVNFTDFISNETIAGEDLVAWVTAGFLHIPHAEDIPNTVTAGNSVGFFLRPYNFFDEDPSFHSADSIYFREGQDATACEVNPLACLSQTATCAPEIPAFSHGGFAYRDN
Method: (§1) The continuous spectrophotometric detection of SSAO-dependent H2O2 production based on a peroxidase-coupled reaction was performed as previously described by Abella et al. (2004, Diabetologia 47: 429-438) and following the procedure described by Holt et al., (1997, Anal. Biochem. 244: 384-392).
(§2) Compounds listed in Table 1 were prepared according to the methods described above, purity was determined by HPLC at 220 nm, molecular weight calculated by mass spectrometer. Human and mouse SSAO activity was determined by detecting the production of hydrogene peroxide in the presence of the different compounds present at 1 mM for human and 100 μM for mice activity measurements. Compounds in Table 2″ were similarly assayed. Values are means of percentages relative to benzylamine-related hydrogen production. Kinetic Parameters for select compounds are set forth in Table 3 (Mouse SSAO) and Table 4 (Human SSAO).

[2] = target: T2, Human SSAO (Homo sapiens, UniProt Q16853); assay: SSAO activity, hydrogen peroxide production relative to benzylamine (human); assay type: biochemical; conditions: compound at 1 mM
T2 sequence (Q16853 1-763): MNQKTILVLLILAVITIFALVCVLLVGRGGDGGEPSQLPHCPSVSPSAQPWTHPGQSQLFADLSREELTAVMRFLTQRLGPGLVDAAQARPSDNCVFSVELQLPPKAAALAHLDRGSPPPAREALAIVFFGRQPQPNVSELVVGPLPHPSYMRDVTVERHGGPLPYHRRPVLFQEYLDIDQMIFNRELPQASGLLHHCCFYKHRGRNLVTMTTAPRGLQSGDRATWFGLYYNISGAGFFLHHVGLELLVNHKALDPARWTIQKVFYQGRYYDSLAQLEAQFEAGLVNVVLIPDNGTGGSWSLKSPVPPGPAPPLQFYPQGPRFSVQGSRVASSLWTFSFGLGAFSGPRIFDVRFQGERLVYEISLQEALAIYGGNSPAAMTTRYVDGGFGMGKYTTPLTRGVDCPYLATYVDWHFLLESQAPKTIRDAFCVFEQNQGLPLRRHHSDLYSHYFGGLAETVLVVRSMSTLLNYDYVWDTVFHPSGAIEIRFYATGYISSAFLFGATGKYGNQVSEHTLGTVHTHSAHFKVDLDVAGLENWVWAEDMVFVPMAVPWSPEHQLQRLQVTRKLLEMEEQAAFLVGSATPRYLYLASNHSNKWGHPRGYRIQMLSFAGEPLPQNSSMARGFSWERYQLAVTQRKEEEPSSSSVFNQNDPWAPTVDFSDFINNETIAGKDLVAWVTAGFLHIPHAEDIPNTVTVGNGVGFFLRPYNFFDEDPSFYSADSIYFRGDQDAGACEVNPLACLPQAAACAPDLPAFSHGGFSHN
Method: as §1, §2

Compound | SSAO activity (% relative to benzylamine) Mouse [1] [%] | SSAO activity (% relative to benzylamine) Human [2] [%]
NCCc1ccccc1 [Entry 41, 2-phenylethanamine] | 6.80 | 8.20
NCCc1ccc(F)cc1 [Entry 46, 2-(4-fluorophenyl)ethanamine] | 59.80 | 16.30
NCc1ccc(OCc2ccccc2)cc1 [Entry 20, (4-(benzyloxy)phenyl)methanamine] | 0.0 | 0.0
NCc1ccccc1F [Entry 23, (2-fluorophenyl)methanamine] | 44.0 | 1.3
COc1ccc(CN)c2ccccc12 [Entry 28, (4-methoxynaphthalen-1-yl)methanamine] | 0.00 | 0.70
CC(C)c1ccc(CN)cc1 [Entry 7, (4-isopropylphenyl)methanamine] | 0.00 | 0.00
CCCCc1ccc(CN)cc1 [Entry 11, (4-butylphenyl)methanamine] | 27.00 | 0.00
NCc1c(O)ccc2ccccc12 [Entry 29, 1-(aminomethyl)naphthalen-2-ol] | 0.00 | 0.00
CC(N)c1cccc2ccccc12 (stereo not shown) [Entry 30, 1-(naphthalen-1-yl)ethanamine] | 0.00 | 11.00
NCCCCc1ccccc1 [Entry 44, 4-phenylbutan-1-amine] | 61.18 | 147.63
NCc1ccc(-c2ccccc2)cc1 [Entry 15, biphenyl-4-yl-methanamine] | 3.77 | 0.00
NCc1ccc(F)cc1 [Entry 3, (4-fluorophenyl)methanamine] | 77.20 | 31.70
NCc1ccc(C(F)(F)F)cc1 [Entry 8, (4-(trifluoromethyl)phenyl)methanamine] | 83.00 | 0.50
COc1cccc(O)c1CN [Entry 19, 2-(aminomethyl)-3-methoxyphenol] | 0.00 | 0.00
NCc1cccc2c1OCCO2 [Entry 21, (2,3-dihydrobenzo-[b][1,4]dioxin-5-yl)methanamine] | 12.36 | 0.00
Cc1ccc(CN)cc1 [Entry 4, p-tolylmethanamine] | 0.00 | 0.00
CCc1ccc(CN)cc1 [Entry 5] | 17.30 | 0.00
NCCOc1ccccc1 [Entry 43, 2-phenoxyethanamine] | 14.60 | 17.93

Compound | SSAO activity (% relative to benzylamine) Mouse [1] [%] | SSAO activity (% relative to benzylamine) Human [2] [%]
COc1cc(F)cc(CN)c1 [Entry 17, (3-fluoro-5-methoxyphenyl)methanamine] | 4.86 | 2.53
NCc1ccc(C(=O)O)cc1 [Entry 27, 4-(aminomethyl)benzoic acid] | 4.06 | 0.00
NCc1cccc([N+](=O)[O-])c1O [Entry 14, 2-(aminomethyl)-6-nitrophenol] | 5.47 | 0.11
COc1ccc(CCN)cc1OC [Entry 48, 2-(3,4-dimethoxyphenyl)ethanamine] | 3.80 | 0.00
NCc1ccc(CN)cc1 [Entry 25, 1,4-phenylene dimethanamine] | 0.00 | 0.00
NCc1ccc(O)c(Br)c1 [Entry 13, 4-(aminomethyl)-2-bromophenol] | 0.00 | 0.00
NCCc1ccc(O)c(O)c1 [Entry 47, 4-(2-aminoethyl)benzene-1,2-diol] | 0.00 | 0.00
COc1cc(CN)cc(OC)c1 [Entry 24, (3,5-dimethoxyphenyl)methanamine] | 0.75 | 0.00
NCCCc1ccccc1 [Entry 42, 3-phenylpropan-1-amine] | 44.80 | 60.30
COc1cccc2[nH]cc(CN)c12 [Entry 45, (4-methoxy-1H-indol-3-yl)methanamine] | 5.54 | 0.00
CC(C)(C)c1ccc(CN)cc1 [Entry 6, (4-tert-butylphenyl)methanamine] | 1.00 | 0.00
Cc1ccc(CN)cc1F [Entry 16, (3-fluoro-4-methylphenyl)methanamine] | 33.49 | 7.07
NCc1cccc(CN)c1 [Entry 26, 1,3-phenylene dimethanamine] | 0.00 | 0.00
COc1ccc(CN)cc1 [Entry 22, (4-methoxyphenyl)methanamine] | 4.56 | 0.00
NCc1ccccc1 [Entry 1, Benzylamine, reference compound] | 100 | 100
NCc1ccc(OC(F)(F)F)cc1 [Entry 9, (4-(trifluoromethoxy)phenyl)methanamine] | 66.20 | 0.00
COc1ccc(CN)c(OC)c1 [Entry 10, (2,4-dimethoxyphenyl)methanamine] | 0.00 | 0.00
